Reference: patent publication US20120095055A1, “HEXAHYDROCYCLOPENTYL[f]INDAZOLE 5-HYDROXYMETHYL ETHANOLS AND DERIVATIVES THEREOF AS SELECTIVE GLUCOCORTICOID RECEPTOR MODULATORS” (Merck Sharp & Dohme, Corp., priority 2009, published 2012)
pEC50: −log10 of the molar value.

Target: T1, human GR (Homo sapiens, UniProt P04150)
T1 construct: naturally expresses the human GR; endogenous in cells
T1 sequence (P04150 1-777): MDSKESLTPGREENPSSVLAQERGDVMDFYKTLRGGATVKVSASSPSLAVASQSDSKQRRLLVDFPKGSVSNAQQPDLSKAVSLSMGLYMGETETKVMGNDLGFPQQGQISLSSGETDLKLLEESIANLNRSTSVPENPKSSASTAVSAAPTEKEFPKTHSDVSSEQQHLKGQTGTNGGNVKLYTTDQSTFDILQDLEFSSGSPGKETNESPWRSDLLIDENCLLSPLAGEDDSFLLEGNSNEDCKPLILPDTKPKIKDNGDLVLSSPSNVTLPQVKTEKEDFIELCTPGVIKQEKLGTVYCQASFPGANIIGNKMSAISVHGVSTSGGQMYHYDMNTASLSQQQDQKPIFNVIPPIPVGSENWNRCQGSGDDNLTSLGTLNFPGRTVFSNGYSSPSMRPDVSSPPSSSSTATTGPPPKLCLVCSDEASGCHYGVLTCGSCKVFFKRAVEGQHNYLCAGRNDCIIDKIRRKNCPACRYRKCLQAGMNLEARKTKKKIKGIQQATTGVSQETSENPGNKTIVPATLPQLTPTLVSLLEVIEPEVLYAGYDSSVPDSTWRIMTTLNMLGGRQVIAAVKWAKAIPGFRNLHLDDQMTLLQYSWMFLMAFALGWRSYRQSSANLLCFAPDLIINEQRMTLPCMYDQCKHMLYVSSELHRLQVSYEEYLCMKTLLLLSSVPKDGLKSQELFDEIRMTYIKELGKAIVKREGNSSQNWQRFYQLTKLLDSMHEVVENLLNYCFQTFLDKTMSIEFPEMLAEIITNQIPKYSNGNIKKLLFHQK
Assay: Trans-Activation Modulation of Glucocorticoid Receptor Assay (GRAMMER), MMTV-LUC reporter in A549 cells
Type: cell-based
Details: for Emax: A549, Emax relative to the activity obtained with 300 nM dexamethasone, read-out: Transactivation A549 Cells GRAMMER Emax (%); for pEC50: inflection point (IP), MMTV-LUC reporter, read-out: Transactivation A549 Cells GRAMMER IP; for Transactivation A549 Cells GRAMMER Emax (%): Emax relative to the activity obtained with 300 nM dexamethasone
Description: This assay assesses the ability of test compounds to control transcription from the MMTV-LUC reporter gene in lung adenocarcinoma A549 cells or HeLa cells, a human […] cell line that naturally expresses the human GR. The assay measures induction of a modified MMTV LTR/promoter linked to the LUC reporter gene.
The routine transient assay consists of plating 7,000-25,000 cells/well of a white, clear-bottom 96-well plate. Alternatively, 384-well plates can be used at a cell concentration of 10,000/well. The media that the cells are plated in is “exponential growth medium” which consists of phenol red-free RPMI1640 containing 10% FBS, 4 mM L-glutamine, 20 mM HEPES, 10 ug/mL human insulin, and 20 ug/mL gentamicin. Incubator conditions are 37° C. and 5% CO2. The transfection is done in batch mode. The cells are trypsinized and counted to the right cell number in the proper amount of fresh media. It is then gently mixed with the FuGene6/DNA mix and plated onto the 96 or 384-well plate, all the wells receive 100 uL or 40 uL, respectively, of medium+lipid/DNA complex then incubated 37° C. overnight. The transfection cocktail consists of serum-free OptiMEM, FuGene6 reagent and DNA. The manufacturer's (Roche Biochemical) protocol for cocktail setup is as follows: The lipid to DNA ratio is approximately 2.5:1 and the incubation time is 20 min at room temperature. Sixteen to 24 hours after transfection, the cells are treated with dexamethasone to a final concentration of 10 nM as well as the compound of interest, such that final DMSO (vehicle) concentration is equal to or less than 1%. Each plate also contains samples that are treated with 10 nM dexamethasone alone, which is used as the 100% activity control. The cells are exposed to the compounds for 24 hours. After 24 hours, the cells are lysed by a Promega cell culture lysis buffer for approximately 30 min and then the luciferase activity in the extracts is assayed in the 96-well format luminometer. In 384-well format, Steady-Glo (Promega) or Steady-Lite (PerkinElmer) can be used by adding an equal volume of reagent to the media present in each well. Activity induced by 10 nM dexamethasone alone is set at 100% activity. Antagonist activity is calculated by determining the decrease in dexamethasone-induced activity in response to compound treatment relative to samples that were treated with dexamethasone alone. Results are expressed as % inhibition of 10 nM dexamethasone activity or as fold of 10 nM dexamethasone activity. This transactivation assay can be performed in an agonist and antagonist mode to identify these different activities.
Activity of test compounds is calculated as the Emax relative to the activity obtained with 300 nM dexamethasone. Activity of test compounds is calculated as the Emax relative to the activity obtained with 300 nM DEX. The exemplified tissue selective glucocorticoid receptor modulators of the present invention display agonist activity in this assay of greater than 5% and less than 100%, and maximal transactivation activity less then maximal transrepression activity. […]

| Structure (SMILES) | Emax [%] | pEC50 | Transactivation A549 Cells GRAMMER Emax (%) |
| --- | --- | --- | --- |
| CC(C)C(O)C[C@]1(CO)CCC2=Cc3c(cnn3-c3ccc(F)cc3)C[C@@]21C (single isomer, unassigned) [Example 14a] | 25 | 6.32 |  |
| C[C@]12Cc3cnn(-c4ccc(F)cc4)c3C=C1CC[C@@]2(CO)CC(O)c1cc(F)cc(F)c1 (stereo partly drawn) [Example 9, 1-(3,5-difluorophenyl)-2-[(4αS,5R)-1-(4-fluorophenyl)-5-(hydroxymethyl)-4α-methyl-1,4,4α,5,6,7-hexahydrocyclopenta[f]indazol-5-yl]ethanol] | 80.3 | 8.49 |  |
| C[C@]12Cc3cnn(-c4cccc(F)c4)c3C=C1CC[C@@]2(CO)CC(O)c1ccccn1 (single isomer, unassigned) [Example 19a] | 43.7 | 7.38 |  |
| C[C@]12Cc3cnn(-c4cccc(F)c4)c3C=C1CC[C@@]2(CO)CC(O)c1cccnc1 (single isomer, unassigned) [Example 27a] |  | 6.45 | 6.8 |
| C[C@]12Cc3cnn(-c4ccc(F)cc4)c3C=C1CC[C@@]2(CO)CC(O)C1CCCCC1 (single isomer, unassigned) [Example 18b, 1-cyclohexyl-2-[(4αS)-1-(4-fluorophenyl)-5-(hydroxymethyl)-4α-methyl-1,4,4α,5,6,7-hexahydrocyclopenta[f]indazol-5-yl]ethanol] |  | 7.22 | 56.2 |
| C[C@]12Cc3cnn(-c4ccc(F)cc4)c3C=C1CC[C@@]2(CO)CC(O)C1CC1 (single isomer, unassigned) [Example 20b, 1-cyclopropyl-2-[(4αS)-1-(4-fluorophenyl)-5-(hydroxymethyl)-4α-methyl-1,4,4α,5,6,7-hexahydrocyclopenta[f]indazol-5-yl]ethanol] |  | 6.09 | 11.3 |
| C[C@]12Cc3cnn(-c4ccc(F)cc4)c3C=C1CC[C@@]2(CO)CC(O)C(F)(F)F (single isomer, unassigned) [Example 28a] | 60.4 | 6.97 |  |
| C[C@]12Cc3cnn(-c4ccc(F)cc4)c3C=C1CC[C@@]2(CO)CC(O)c1cc(F)cc(Cl)c1 (single isomer, unassigned) [Example 6b] |  | 6.91 | 84.7 |
| C[C@]12Cc3cnn(-c4ccc(F)cc4)c3C=C1CC[C@@]2(CO)CC(O)c1cccc(C(F)(F)F)c1 (single isomer, unassigned) [Example 7b] |  | 7.41 | 55.8 |
| C[C@]12Cc3cnn(-c4ccc(F)cc4)c3C=C1CC[C@@]2(CO)CC(O)C(F)(F)F (single isomer, unassigned) [Example 28b] |  | 6.97 | 42.3 |
| C[C@]12Cc3cnn(-c4ccccc4)c3C=C1CC[C@@]2(CO)CC(O)c1cccnc1 (single isomer, unassigned) [Example 29b] |  | 6.92 | 13.7 |
| C[C@]12Cc3cnn(-c4ccccc4)c3C=C1CC[C@@]2(CO)CC(O)c1ccccn1 (single isomer, unassigned) [Example 23b] |  | 7.20 | 47.7 |
| CC(C)C(O)C[C@]1(CO)CCC2=Cc3c(cnn3-c3ccc(F)cc3)C[C@@]21C (single isomer, unassigned) [Example 14b] |  | 6.69 | 32.6 |
| C[C@]12Cc3cnn(-c4ccccc4)c3C=C1CC[C@@]2(CO)CC(O)c1ccccn1 (single isomer, unassigned) [Example 23a] | 39.4 | 7.30 |  |
| COc1ccc(C(O)C[C@]2(CO)CCC3=Cc4c(cnn4-c4ccc(F)cc4)C[C@@]32C)nc1 (single isomer, unassigned) [Example 24a] | 7.6 | 6.33 |  |

Continued, values first:

| Emax [%] | pEC50 | Transactivation A549 Cells GRAMMER Emax (%) | Structure (SMILES) |
| --- | --- | --- | --- |
| 45.5 | 6.50 |  | Cc1ccc(C(O)C[C@]2(CO)CCC3=Cc4c(cnn4-c4ccc(F)cc4)C[C@@]32C)cc1 (single isomer, unassigned) [Example 2b] |
| 7.9 | 6.54 |  | CC(O)(C[C@]1(CO)CCC2=Cc3c(cnn3-c3ccc(F)cc3)C[C@@]21C)c1cccnc1 (single isomer, unassigned) [Example 25a] |
|  | 7.11 | 35.6 | C[C@]12Cc3cnn(-c4ccc(F)cc4)c3C=C1CC[C@@]2(CO)CC(O)c1ccncc1 (single isomer, unassigned) [Example 17b] |
| 47.4 | 6.90 |  | C[C@]12Cc3cnn(-c4ccc(F)cc4)c3C=C1CC[C@@]2(CO)CC1OC(=O)c2ccccc21 (single isomer, unassigned) [Example 12a] |
|  | 7.91 | 67.0 | C[C@]12Cc3cnn(-c4ccc(F)cc4)c3C=C1CC[C@@]2(CO)CC(O)c1ncccc1F (single isomer, unassigned) [Example 10b] |
|  | 7.58 | 56.0 | C[C@]12Cc3cnn(-c4ccc(F)cc4)c3C=C1CC[C@@]2(CO)CC(O)c1ccccn1 (single isomer, unassigned) [Example 1b] |
|  | 7.78 | 130.3 | C[C@]12Cc3cnn(-c4ccc(F)cc4)c3C=C1CC[C@@]2(CO)CC(O)c1ccccc1Cl (single isomer, unassigned) [Example 3b] |
| 73.1 | 8.06 |  | C[C@]12Cc3cnn(-c4ccc(F)cc4)c3C=C1CC[C@@]2(CO)CC(O)c1ccccc1 (single isomer, unassigned) [Example 13a] |
| 41.8 | 6.48 |  | C[C@]12Cc3cnn(-c4ccc(F)cc4)c3C=C1CC[C@@]2(CO)CC1OC(=O)c2ccccc21 (stereo partly drawn) [Example 11, 3-{[(4αS,5R)-1-(4-fluorophenyl)-5-(hydroxymethyl)-4α-methyl-1,4,4α,5,6,7,7a,8-octahydrocyclopenta[f]indazol-5-yl]methyl}-2-benzofuran-1(3H)-one] |
|  | 8.25 | 83.9 | C[C@]12Cc3cnn(-c4ccc(F)cc4)c3C=C1CC[C@@]2(CO)CC(O)c1ccccn1 (single isomer, unassigned) [Example 1a] |
|  | 6.00 | 4.5 | COc1ccc(C(O)C[C@]2(CO)CCC3=Cc4c(cnn4-c4ccc(F)cc4)C[C@@]32C)nc1 (single isomer, unassigned) [Example 24b] |
| 56 | 7.49 |  | C[C@]12Cc3cnn(-c4ccc(F)cc4)c3C=C1CC[C@@]2(CO)CC(O)c1cccc(Cl)c1 (stereo partly drawn) [Example 8, 1-(3-chlorophenyl)-2-[(4αS,5R)-1-(4-fluorophenyl)-5-(hydroxymethyl)-4α-methyl-1,4,4α,5,6,7-hexahydrocyclopenta[f]indazol-5-yl]ethanol] |
|  | 7.19 | 74.3 | C[C@]12Cc3cnn(-c4ccc(F)cc4)c3C=C1CC[C@@]2(CO)CC(O)c1ccc(F)cn1 (single isomer, unassigned) [Example 22b] |
